According to patent publication US9936700B2, “Substituted quinoxaline derivatives as pest control agent” (BAYER CROPSCIENCE AKTIENGESELLSCHAFT, priority 2013, dated 2018):
Where two headings read alike, the source gives them in different places. Blank lines part the entries; values can stand above or below the compound they belong to.

Tests used:
Aphis gossypii = Aphis gossypii spray test; type: in vivo; conditions: cotton plants, after 6 days
Experimental: Aphis gossypii—spray test
• Solvent: 7 parts by weight of dimethylformamide • Emulsifier: alkylaryl polyglycol ether
To produce further test concentrations, the preparation is diluted with emulsifier-containing water. If the addition of ammonium salts or/and penetrants is required, these are each added in a concentration of 1000 ppm to the formulation solution.
After 6 days, the kill in % is determined. 100% means that all the aphids have been killed; 0% means that no aphids have been killed.

Myzus persicae = Myzus persicae spray test (MYZUPE); type: in vivo; conditions: Chinese cabbage leaf discs, after 6 days
Experimental: Myzus persicae—spray test (MYZUPE)
• Solvent: 78 parts by weight of acetone • 1.5 parts by weight of dimethylformamide • Emulsifier: 0.5 part by weight of alkylaryl polyglycol ether
After 6 days, the efficacy in % is determined. 100% means that all the aphids have been killed; 0% means that no aphids have been killed.

[1] = log P by reversed-phase HPLC (EEC Directive 79/831 Annex V.A8); type: physicochemical; conditions: for chromatographic logP: reversed-phase C18 HPLC column
Description: NMR data and log P values: log P (HCOOH)=log P[a] log P (neutral)=log P[b]
^[a] […] Called log P (HCOOH) in the table.
^[b] […] Called log P (neutral) in the table.

Tetranychus urticae = Tetranychus urticae spray test, OP-resistant (TETRUR); type: in vivo; conditions: 500 g/ha, bean leaf discs, after 6 days
Experimental: Tetranychus urticae—spray test, OP-resistant (TETRUR)
• Solvent: 78.0 parts by weight of acetone • 1.5 parts by weight of dimethylformamide • Emulsifier: 0.5 part by weight of alkylaryl polyglycol ether
After 6 days, the efficacy in % is determined. 100% means that all the spider mites have been killed; 0% means that no spider mites have been killed.

[2] = acidic range, pH 2.7, 0.1% aqueous formic acid/acetonitrile
[3] = neutral range, pH 7.8, aqueous ammonium hydrogencarbonate/acetonitrile
[4] = acidic range, pH 2.7, 0.1% aqueous formic acid/acetonitrile, read-out: logP [a] = log P (HCOOH)
[5] = neutral range, pH 7.8, aqueous ammonium hydrogencarbonate/acetonitrile, read-out: logP [b] = log P (neutral)

- logP [a] = log P (HCOOH) ([1]; pH 2.7): 2.60
Compound: COc1cnccc1-c1cnc2ccc(C(F)(F)F)cc2n1 [Example I-62]
- efficacy (kill of aphids) (Aphis gossypii; 100 ppm): 97%
- efficacy (aphids killed) (Myzus persicae; 100 g/ha): 90%

- logP [a] = log P (HCOOH) ([1]; pH 2.7): 4.67
Compound: Cc1ccsc1-c1cnc2cc(C(F)(F)F)ccc2n1 [Example I-48]
- efficacy (spider mites killed) (Tetranychus urticae): 90%

Compound: Cc1cnccc1-c1cnc2cc(Cl)c(Cl)cc2n1 [Example I-41]
- logP [a] = log P (HCOOH) ([1]; pH 2.7): 2.51
- logP [b] = log P (neutral) ([1]; pH 7.8): 3.29

Compound: Cc1cnccc1-c1nc2ccc(C(F)(F)F)cc2nc1C [Example I-66]
- efficacy (kill of aphids) (Aphis gossypii; 100 ppm): 95%
- efficacy (aphids killed) (Myzus persicae; 500 g/ha): 90%
- logP [a] = log P (HCOOH) [1, 2]: 2.15
- efficacy (spider mites killed) (Tetranychus urticae): 90%

- logP [a] = log P (HCOOH) ([1]; pH 2.7): 4.17
Compound: FC(F)(F)c1ccccc1-c1cnc2cc(Cl)ccc2n1 [Example I-21]
- efficacy (spider mites killed) (Tetranychus urticae): 100%

Compound: Cn1nccc1-c1cnc2ccc(C(F)(F)F)cc2n1 [Example I-50]
- logP [a] = log P (HCOOH) [1, 2]: 3.02
- logP [b] = log P (neutral) [1, 3]: 3.00

Compound: Clc1cc2ncc(-c3ccncc3)nc2cc1Cl [Example I-73]
- logP [a] = log P (HCOOH) [1, 2]: 2.53

Compound: FC(F)(F)c1ccc2nc(-c3ccc(Cl)cc3)cnc2c1 [Example I-25]
- logP [a] = log P (HCOOH) [1, 2]: 4.99
- efficacy (spider mites killed) (Tetranychus urticae): 90%

Compound: Cc1cnccc1-c1nc2cc(C(F)(F)F)ccc2nc1Cl [Example I-38]
- logP [a] = log P (HCOOH) ([1]; pH 2.7): 2.88

Compound: FC(F)(F)c1ccc2nc(-c3ccccn3)cnc2c1 [Example I-18]
- efficacy (aphids killed) (Myzus persicae; 500 g/ha): 90%
- logP [a] = log P (HCOOH) [1, 2]: 3.72
- logP [b] = log P (neutral) [1, 3]: 3.75
- efficacy (spider mites killed) (Tetranychus urticae): 90%

- chromatographic logP [1, 4]: 5.2
Compound: CCSc1ccccc1-c1nc2ccc(C(F)(F)F)cc2nc1Cl [Example I-3, 3-Chloro-2-[2-(ethylsulfanyl)phenyl]-6-(trifluoromethyl)quinoxaline]

- logP [a] = log P (HCOOH) ([1]; pH 2.7): 2.33
Compound: FC(F)(F)c1ccc2nc(-c3cncnc3)cnc2c1 [Example I-12]
- efficacy (spider mites killed) (Tetranychus urticae): 90%

Compound: N#Cc1ccc2nc(-c3ccncc3)cnc2c1 [Example I-61]
- logP [a] = log P (HCOOH) [1, 2]: 1.19

- logP [a] = log P (HCOOH) ([1]; pH 2.7): 5.38
- logP [b] = log P (neutral) ([1]; pH 7.8): 5.48
Compound: CCSc1ccccc1-c1cnc2cc(Cl)c(Cl)cc2n1 [Example I-42]

- logP [a] = log P (HCOOH) ([1]; pH 2.7): 2.01
Compound: Clc1ccc2nc(-c3cncnc3)cnc2c1 [Example I-19]

Compound: Cc1ccccc1-c1cnc2ccc(C(F)(F)F)cc2n1 [Example I-47]
- logP [a] = log P (HCOOH) [1, 2]: 4.47
- logP [b] = log P (neutral) [1, 3]: 4.41

Compound: Cn1nccc1-c1cnc2cc(C(F)(F)F)ccc2n1 [Example I-49]
- logP [a] = log P (HCOOH) [1, 2]: 3.07
- logP [b] = log P (neutral) [1, 3]: 3.05

- chromatographic logP [1, 4]: 5.02
Compound: FC1(F)Oc2cc3ncc(-c4ccc(C(F)(F)F)cc4)nc3cc2O1 [Example I-5, 2,2-Difluoro-6-[4-(trifluoromethyl)phenyl][1,3]dioxolo [4,5-g]quinoxaline]

- logP [a] = log P (HCOOH) ([1]; pH 2.7): 3.24
Compound: FC1(F)Oc2cc3ncc(-c4ccncc4Cl)nc3cc2O1 [Example I-72]

- logP [a] = log P (HCOOH) ([1]; pH 2.7): 4.56
Compound: CCSc1ccccc1-c1cnc2cc(Cl)ccc2n1 [Example I-23]

Compound: Clc1ccc2nc(-c3ccnc(Cl)c3)cnc2c1 [Example I-69]
- logP [a] = log P (HCOOH) [1, 2]: 3.52

Compound: Cc1cnccc1-c1cnc2ccc(S(C)(=O)=O)cc2n1 [Example I-13]
- logP [a] = log P (HCOOH) ([1]; pH 2.7): 0.72
- logP [b] = log P (neutral) ([1]; pH 7.8): 1.34

- chromatographic logP [1, 4]: 1.49
- chromatographic logP [1, 5]: 1.33
Compound: O=c1cnc2cc3c(cc2[nH]1)OC(F)(F)O3 [VIa-03, 2,2-difluoro[1,3]dioxolo[4,5-g]quinoxalin-6(5H)-one]

- logP [a] = log P (HCOOH) ([1]; pH 2.7): 2.52
- logP [b] = log P (neutral) ([1]; pH 7.8): 2.52
Compound: CS(=O)(=O)c1ccccc1-c1cnc2cc(Cl)ccc2n1 [Example I-28]

- chromatographic logP [1, 5]: 1.65
Compound: O=c1cnc2ccc(C(F)(F)F)cc2[nH]1 [VIa-02, 7-(trifluoromethyl)quinoxalin-2(1H)-one]

Compound: Cc1cnccc1-c1cnc2cc(C#N)ccc2n1 [Example I-56]
- logP [a] = log P (HCOOH) ([1]; pH 2.7): 1.17
- logP [b] = log P (neutral) ([1]; pH 7.8): 1.81

- logP [a] = log P (HCOOH) ([1]; pH 2.7): 4.45
- logP [b] = log P (neutral) ([1]; pH 7.8): 4.31
Compound: CSc1ccccc1-c1cnc2cc(C(F)(F)F)ccc2n1 [Example I-16]

Compound: Cc1ccccc1-c1cnc2cc(C(F)(F)F)ccc2n1 [Example I-46]
- logP [a] = log P (HCOOH) [1, 2]: 4.48
- efficacy (spider mites killed) (Tetranychus urticae): 90%

- logP [a] = log P (HCOOH) ([1]; pH 2.7): 2.85
- logP [b] = log P (neutral) ([1]; pH 7.8): 2.78
Compound: CCSc1ccccc1-c1cnc2ccc(S(C)(=O)=O)cc2n1 [Example I-35]

- logP [a] = log P (HCOOH) ([1]; pH 2.7): 4.57
Compound: Cc1cscc1-c1cnc2cc(C(F)(F)F)ccc2n1 [Example I-45]

Compound: Cc1c[n+]([O-])ccc1-c1c[n+]([O-])c2cc(C(F)(F)F)ccc2n1 [Example I-55]
- logP [a] = log P (HCOOH) [1, 2]: 1.59

- logP [a] = log P (HCOOH) ([1]; pH 2.7): 4.04
- logP [b] = log P (neutral) ([1]; pH 7.8): 4.00
Compound: Cc1ccc(-c2c[n+]([O-])c3ccc(C(F)(F)F)cc3n2)c(F)c1 [Example I-54]

Compound: Cc1cnccc1-c1nc2ccc(C(F)(F)F)cc2nc1-c1ccc(Cl)cc1 [Example I-64]
- logP [a] = log P (HCOOH) [1, 2]: 4.03

Compound: FC(F)(F)c1ccc2nc(Cl)c(-c3ccc(Cl)cc3)nc2c1 [Example I-53]
- logP [a] = log P (HCOOH) [1, 2]: 5.31

- logP [a] = log P (HCOOH) ([1]; pH 2.7): 3.60
- logP [b] = log P (neutral) ([1]; pH 7.8): 3.55
Compound: CCSc1ccccc1-c1cnc2cc(C#N)ccc2n1 [Example I-57]

Compound: CCc1cnccc1-c1cnc2ccc(C(F)(F)F)cc2n1 [Example I-27]
- efficacy (spider mites killed) (Tetranychus urticae): 90%

Compound: Cc1cnccc1-c1cnc2cc(Cl)ccc2n1 [Example I-17]
- logP [a] = log P (HCOOH) ([1]; pH 2.7): 1.69
- logP [b] = log P (neutral) ([1]; pH 7.8): 2.58

- logP [a] = log P (HCOOH) ([1]; pH 2.7): 3.27
Compound: FC(F)(F)c1ccc2nc(-c3ccncc3Cl)cnc2c1 [Example I-10]
- efficacy (kill of aphids) (Aphis gossypii; 20 ppm): 85%
- efficacy (aphids killed) (Myzus persicae; 100 g/ha): 100%

- chromatographic logP [1, 5]: 1.71
Compound: O=c1cnc2cc(C(F)(F)F)ccc2[nH]1 [VIa-01, 6-(trifluoromethyl)quinoxalin-2(1H)-one]

Compound: CCSc1ccccc1-c1nc2cc3c(cc2nc1-c1ccc(Cl)cc1)OC(F)(F)O3 [Example I-59]
- logP [a] = log P (HCOOH) [1, 2]: 6.23

- logP [a] = log P (HCOOH) ([1]; pH 2.7): 4.97
Compound: Cc1ccc(-c2cnc3ccc(C(F)(F)F)cc3n2)c(F)c1 [Example I-51]
- efficacy (spider mites killed) (Tetranychus urticae): 100%

Compound: Cc1cnccc1-c1nc2cc(F)c(F)cc2nc1C [Example I-65]
- logP [a] = log P (HCOOH) ([1]; pH 2.7): 1.58

Compound: FC(F)(F)c1ccc2nc(-c3ccncc3)c(-c3ccncc3)nc2c1 [Example I-58]
- logP [a] = log P (HCOOH) [1, 2]: 2.06

Compound: Cc1cnccc1-c1nc2cc3c(cc2nc1C)OC(F)(F)O3 [Example I-67]
- logP [a] = log P (HCOOH) ([1]; pH 2.7): 2.02

- chromatographic logP [1, 4]: 4.12
Compound: [O-][n+]1cc(-c2ccc(C(F)(F)F)cc2)nc2cc3c(cc21)OC(F)(F)O3 [Example I-6, 2,2-Difluoro-7-[4-(trifluoromethyl)phenyl][1,3]dioxolo [4,5-g]quinoxaline 5-oxide]

- logP [a] = log P (HCOOH) ([1]; pH 2.7): 2.66
- logP [b] = log P (neutral) ([1]; pH 7.8): 2.65
Compound: CC[S+]([O-])c1ccccc1-c1cnc2cc(Cl)ccc2n1 (stereo not drawn) [Example I-31]
- efficacy (aphids killed) (Myzus persicae; 500 g/ha): 90%

- logP [a] = log P (HCOOH) ([1]; pH 2.7): 2.72
Compound: Fc1cc2ncc(-c3ccncc3Cl)nc2cc1F [Example I-70]

Compound: Cc1cnccc1-c1nc2ccc(C(F)(F)F)cc2nc1Cl [Example I-37]
- logP [a] = log P (HCOOH) ([1]; pH 2.7): 2.94

- logP [a] = log P (HCOOH) ([1]; pH 2.7): 3.78
Compound: Clc1cc2ncc(-c3ccncc3Cl)nc2cc1Cl [Example I-71]

Compound: Cc1cnccc1-c1nc2cc(C(F)(F)F)ccc2nc1-c1ccc(Cl)cc1 [Example I-68]
- logP [a] = log P (HCOOH) [1, 2]: 3.94

- logP [a] = log P (HCOOH) ([1]; pH 2.7): 2.99
Compound: Clc1ccc2nc(-c3ccncc3Cl)cnc2c1 [Example I-39]

- logP [a] = log P (HCOOH) ([1]; pH 2.7): 4.08
Compound: CSc1ccccc1-c1cnc2cc(Cl)ccc2n1 [Example I-22]
- efficacy (aphids killed) (Myzus persicae; 500 g/ha): 90%

Compound: Cc1cnccc1-c1cnc2cc(F)c(F)cc2n1 [Example I-63]
- efficacy (aphids killed) (Myzus persicae; 500 g/ha): 90%
- logP [a] = log P (HCOOH) ([1]; pH 2.7): 1.55

- logP [a] = log P (HCOOH) ([1]; pH 2.7): 4.57
Compound: Cc1cscc1-c1cnc2ccc(C(F)(F)F)cc2n1 [Example I-44]

Compound: Cc1cccnc1-c1cnc2cc(C(F)(F)F)ccc2n1 [Example I-52]
- logP [a] = log P (HCOOH) ([1]; pH 2.7): 3.69

Compound: Cc1nc2cc(C(F)(F)F)ccc2nc1-c1cccnc1 [Example I-60]
- logP [a] = log P (HCOOH) [1, 2]: 2.39

- logP [a] = log P (HCOOH) ([1]; pH 2.7): 4.65
- logP [b] = log P (neutral) ([1]; pH 7.8): 4.66
Compound: Cc1ccsc1-c1cnc2ccc(C(F)(F)F)cc2n1 [Example I-43]
- efficacy (spider mites killed) (Tetranychus urticae): 90%

- chromatographic logP [1, 4]: 2.96
Compound: O=c1[nH]c2cc3c(cc2nc1-c1ccc(Cl)cc1)OC(F)(F)O3 [VIb-01, 7-(4-chlorophenyl)-2,2-difluoro [1,3]dioxolo [4,5-g]quinoxalin-6(5H)-one]

- logP [a] = log P (HCOOH) ([1]; pH 2.7): 4.59
Compound: CCOc1ncccc1-c1cnc2cc(C(F)(F)F)ccc2n1 [Example I-24]
- efficacy (spider mites killed) (Tetranychus urticae): 100%
